Where “and” joins values, the source holds several entries; their conditions need not be identical. Equal values may be shown once. Read-outs that look alike come from different tables or passages of the source.
What was measured:
HEK293T cells = assay: Cellular cytotoxicity (cell viability, CellTiter 96 or resazurin); details: HEK293T cells, 48 h, compounds formulated with HSA (5:1)
[1] = Mouse plasma pharmacokinetics after intravenous dose; type: in vivo, male C57BL/6 mice; details: i.v. 3 mg/kg
Experimental: (§1) To compare the in vivo PK profiles to TXL and our previously reported drug lead 1 (Tables S19 and S26),[39] one group of male C57BL/6 mice were administered a single oral dose (p.o., 10 mg/kg) of 2a, 16g, or 16h (refer to Experimental Methods). Additionally, a separate group of mice were given a single intravenous dose (i.v., 3 mg/kg) of each prodrug to obtain plasma clearance (Cl), volume of distribution (Vd), and oral bioavailability data. Blood was sampled at 8 time points over 8 h (i.v.) or 24 h (p.o.) postdose, and plasma was isolated via centrifugation. Tissues (liver, kidney, and brain) were also harvested and homogenized at 3 time points over 24 h after oral dose. The concentrations of prodrug and TFV metabolite in each of these samples was then quantified using LC–MS/MS methodology.
(§2) Healthy male C57BL/6 mice (8–12 weeks old) weighing 20–30 g were procured from Global, India. Three mice were housed in each cage. Temperature and humidity were maintained at 22 ± 3 °C and 30–70%, respectively, and illumination was controlled to provide for 12 h light and 12 h dark cycles. Temperature and humidity were recorded by an autocontrolled data logger system. All animals were provided a laboratory rodent diet (Envigo Research private Ltd., Hyderabad). Reverse osmosis H2O treated with ultraviolet light was provided ad libitum.
(§3) Male mice were divided into two groups (n = 18 total, n = 9 per treatment group, n = 3 per time point, sparse sampling). One group was intravenously administered a solution of 2a, 16g, and 16h in 10% PEG-300, 10% Solutol HS-15, and 80% saline at 3 mg/kg with a dosing volume of 5 mL/kg. The second group was administered a solution of 2a, 16g, and 16h in 10% EtOH and 90% olive oil at 10 mg/kg via oral gavage with a dosing volume of 10 mL/kg.
(§4) Blood samples (approximately 60 μL) were collected from retro-orbital plexus under light isoflurane anesthesia such that the samples were obtained predose, as well as at eight time points post dose: 0.1, 0.25, 0.5, 1, 2, 4, 6, and 8 (i.v.) and 0.25, 0.5, 1, 2, 4, 8, 12, and 24 h (p.o.). Immediately after blood collection, plasma samples were harvested by centrifugation at 4000 rpm and 4 °C for 10 min and stored at −70 °C until LC–MS/MS analysis. Following blood collection from p.o. group, liver, kidney, and brain samples were collected (n = 3 per treatment group per time point) at 1, 4, and 24 h post dose. After isolation, tissue samples were rinsed three times with ice-cold saline and dried with blotting paper. Next, the tissue samples were homogenized using ice-cold PBS (pH = 7.4), and the resulting homogenates were stored below −70 °C until LC-MS/MS analysis. The total homogenate volume was 3 times the brain weight and 5 times the liver and kidney weight.
(§5) Areas under the concentration–time curves (AUC0–8h and AUC0–24h) were calculated via the linear trapezoidal rule[65] using GraphPad Prism v9. Furthermore, terminal elimination rate constants k were determined using linear regression (slope = −k) of the terminal portion of semilog-transformed concentration–time curves (Figures S44, S45, S47, S48, S50, and S51).

[2] = Mouse tissue (liver, kidney, brain) pharmacokinetics after oral dose; type: in vivo, male C57BL/6 mice; details: for concentration at 1 h / concentration at 4 h / concentration at 24 h / Cmax at 24 h / Tmax / AUC(0-t) at 24 h: male, C57BL/6, mouse, po; for Cmax at 24 h / Tmax / AUC(0-t) at 24 h: prodrug; for AUC(0-t) at 24 h: read-out: AUC0–24h
Experimental: as §1, §2, §3, §4, §5

[3] = Mouse plasma pharmacokinetics after oral dose; type: in vivo, male C57BL/6 mice
Experimental: as §1, §2, §3, §4, §5

[4] = male, C57BL/6, mouse, iv, prodrug
[5] = brain, p.o. 10 mg/kg, read-out: mean prodrug concentration in brain
[6] = kidney, p.o. 10 mg/kg, read-out: mean prodrug concentration in kidney
[7] = liver, p.o. 10 mg/kg, read-out: mean prodrug concentration in liver
[8] = male, C57BL/6, mouse, po, plasma, prodrug, p.o. 10 mg/kg

In the case of `CCCCCCCCCCCCCCCCSCCCOP(=O)(O)CO[C@H](C)Cn1cnc2c(N)ncnc21.N` [2a], the CC50 (HEK293T cells) is reported as 49.8 ± 2.9 µM, the “k (terminal elimination rate constant)” value ([1]; 3 mg/kg) is reported as 0.4666 and 0.467 and the Vd at 8 h ([1]; male, C57BL/6, mouse, iv) is reported as 18.9 L/kg. For the same compound, the clearance ([1]; male, C57BL/6, mouse, iv) was 147 mL/min/kg, the half-life ([1]; male, C57BL/6, mouse, iv) was 1.49 h and the concentration at 0.1 h ([1]; male, C57BL/6, mouse, iv, 0.1 h, read-out: mean prodrug concentration in plasma) was 2060 ng/mL. The concentration at 0.25 h ([1]; male, C57BL/6, mouse, iv, 0.25 h, read-out: mean prodrug concentration in plasma) was 320 ng/mL, the concentration at 0.5 h ([1]; male, C57BL/6, mouse, iv, 0.5 h, read-out: mean prodrug concentration in plasma) was 134 ng/mL and the concentration at 1 h ([1]; male, C57BL/6, mouse, iv, 1 h, read-out: mean prodrug concentration in plasma) was 57.1 ng/mL. The concentration at 2 h ([1]; male, C57BL/6, mouse, iv, 2 h, read-out: mean prodrug concentration in plasma) was 8.68 ng/mL, the concentration at 4 h ([1]; male, C57BL/6, mouse, iv, 4 h, read-out: mean prodrug concentration in plasma) was 3.75 ng/mL and the concentration at 6 h ([1]; male, C57BL/6, mouse, iv, 6 h, read-out: mean prodrug concentration in plasma) was 3.41 ng/mL. The concentration at 8 h ([1]; male, C57BL/6, mouse, iv, 8 h, read-out: mean prodrug concentration in plasma) was 1.21 ng/mL, the Cmax at 8 h [1, 4] was 2060 ng/mL and the Tmax at 8 h [1, 4] was 6 min. The AUC(0-t) at 8 h ([1]; male, C57BL/6, mouse, iv, prodrug, read-out: AUC0–8h) was 340 ng·h/mL, the “TFV in brain tissue” value ([2]; brain, 1, 4 and 24 h after p.o. 10 mg/kg of prodrug, LLOQ 4.84 ng/mL (9.67 for 16h)) was “BLQ” and the concentration at 1 h [2, 5] was 43.8 ng/mL. It also gave a concentration at 4 h [2, 5] of 2.19 ng/mL, a concentration at 1 h [2, 6] of 581 ng/mL and a concentration at 4 h [2, 6] of 385 ng/mL. For the same compound, the concentration at 24 h ([2]; kidney, p.o. 10 mg/kg, 24 h, read-out: mean prodrug concentration in kidney) was 44.4 ng/mL, the concentration at 1 h [2, 7] was 1250 ng/mL and the concentration at 4 h [2, 7] was 395 ng/mL. The concentration at 24 h ([2]; liver, p.o. 10 mg/kg, 24 h, read-out: mean prodrug concentration in liver) was 3.95 ng/mL, the Cmax at 24 h ([2]; brain, p.o. 10 mg/kg) was 43.8 ng/mL and the Tmax ([2]; brain, p.o. 10 mg/kg) was 1 h. The AUC(0-t) at 24 h ([2]; brain, p.o. 10 mg/kg) was 69 ng·h/mL, the Cmax at 24 h ([2]; kidney, p.o. 10 mg/kg) was 581 ng/mL and the Tmax ([2]; kidney, p.o. 10 mg/kg) was 1 h. The AUC(0-t) at 24 h ([2]; kidney, p.o. 10 mg/kg) was 5740 ng·h/mL, the Cmax at 24 h ([2]; liver, p.o. 10 mg/kg) was 1250 ng/mL and the Tmax ([2]; liver, p.o. 10 mg/kg) was 1 h. For the same compound, the AUC(0-t) at 24 h ([2]; liver, p.o. 10 mg/kg) was 6450 ng·h/mL, the “mean prodrug concentration in brain” value ([2]; p.o. 10 mg/kg, 24 h, BLQ = below limit of quantitation) was “BLQ” and the bioavailability ([3]; male, C57BL/6, mouse, plasma, oral, p.o. 10 mg/kg vs i.v. 3 mg/kg, read-out: %F (oral bioavailability)) was 20%. It also gave a bioavailability at 24 h ([3]; male, C57BL/6, mouse, plasma, po, p.o. 10 mg/kg vs i.v. 3 mg/kg, read-out: %F (oral bioavailability)) of 19.3%, a concentration at 0.25 h ([3]; male, C57BL/6, mouse, plasma, po, p.o. 10 mg/kg, 0.25 h, read-out: mean prodrug concentration in plasma) of 29.6 ng/mL and a concentration at 0.5 h ([3]; male, C57BL/6, mouse, plasma, po, p.o. 10 mg/kg, 0.5 h, read-out: mean prodrug concentration in plasma) of 51.8 ng/mL. The concentration at 1 h ([3]; male, C57BL/6, mouse, plasma, po, p.o. 10 mg/kg, 1 h, read-out: mean prodrug concentration in plasma) was 73.3 ng/mL, the concentration at 2 h ([3]; male, C57BL/6, mouse, plasma, po, p.o. 10 mg/kg, 2 h, read-out: mean prodrug concentration in plasma) was 48 ng/mL and the concentration at 4 h ([3]; male, C57BL/6, mouse, plasma, po, p.o. 10 mg/kg, 4 h, read-out: mean prodrug concentration in plasma) was 8.34 ng/mL. The concentration at 8 h ([3]; male, C57BL/6, mouse, plasma, po, p.o. 10 mg/kg, 8 h, read-out: mean prodrug concentration in plasma) was 7.1 ng/mL, the concentration at 12 h ([3]; male, C57BL/6, mouse, plasma, po, p.o. 10 mg/kg, 12 h, read-out: mean prodrug concentration in plasma) was 7.6 ng/mL and the half-life at 24 h ([3]; male, C57BL/6, mouse, po, plasma, p.o. 10 mg/kg) was 3.49 h. It also gave a Cmax at 24 h [3, 8] of 73.3 ng/mL, a Tmax [3, 8] of 1 h and an AUC(0-t) at 24 h ([3]; male, C57BL/6, mouse, po, plasma, prodrug, p.o. 10 mg/kg, read-out: AUC0–24h) of 219 ng·h/mL. The “mean TFV concentration in plasma” value ([3]; p.o. 10 mg/kg of prodrug, 0.25 h, LLOQ 4.84 ng/mL) was “BLQ”, the “mean prodrug concentration in plasma” value ([3]; p.o. 10 mg/kg, 24 h, BLQ = below LLOQ (0.58 ng/mL 2a, 0.62 ng/mL 16g)) was “BLQ” and the Vd ([3]; plasma, p.o. 10 mg/kg) was 44.4 L/kg. The “k (terminal elimination rate constant)” value ([3]; plasma, p.o. 10 mg/kg, 10 mg/kg) was 0.1985 and 0.199.

Reference: publication PMC11513920, “Building Metabolically Stable and Potent Anti-HIV Thioether-Lipid Analogues of Tenofovir Exalidex: A thorough Pharmacological Analysis” (Journal of Medicinal Chemistry, 2024)
